The test concerns the target human p45MEK1 (GST-MEK) (Homo sapiens, UniProt Q02750). Put plainly: Assay for inhibitors of the MAP kinase pathway (coupled GST-MEK/GST-MAPK/MBP 33P assay). The settings on record: GST-MEK activated by c-raf, 33P incorporation into myelin basic protein. The format is biochemical. Here is the method:
Assay for inhibitors of the MAP kinase pathway
To evaluate inhibitors of the MAPK pathway a coupled assay was carried out which measures phosphorylation of serine/threonine residues present in the substrate in the presence or absence of inhibitor. Recombinant glutathione S-transferase fusion protein containing human p45MEK1 (GST-MEK) was activated by c-raf (Sf9 insect cell lysate from triple baculoviral infection with c-raf/ras/lck) and used for the assay. Active GST-MEK was first used to activate a recombinant glutathione S-transferase fusion protein containing p44MAP kinase (GST-MAPK) in the presence of ATP and Mg^2+ for 60 min at room temperature in the presence or absence of potential inhibitors. The activated GST-MAPK was then incubated with myelin basic protein (MBP) as substrate for 10 min at room temperature in the presence of ATP, Mg^2+ and ^33P-ATP. The reaction was stropped by addition of 20% v/v phosphoric acid. Incorporation of ^33P into the myelin basic protein was determined by capture of the substrate on a filter mat, washing and counting using scintillation methods. The extent of inhibition was determined by comparison with untreated controls.
The final assay solution contained 10 mM Tris, pH 7.5, 0.05 mM EGTA, 8.33 μM [γ^33P]ATP, 8.33 mM Mg(OAc)2, 0.5 mM sodium orthovanadate, 0.05% w/v BSA, 6.5 ng GST-MEK, 1 μg GST-MAPK and 16.5 μg MBP in a reaction volume of 60 μl.

The IC50 is the midpoint of a concentration-inhibition curve.

Chain of human p45MEK1 (GST-MEK) (Q02750 whole entry): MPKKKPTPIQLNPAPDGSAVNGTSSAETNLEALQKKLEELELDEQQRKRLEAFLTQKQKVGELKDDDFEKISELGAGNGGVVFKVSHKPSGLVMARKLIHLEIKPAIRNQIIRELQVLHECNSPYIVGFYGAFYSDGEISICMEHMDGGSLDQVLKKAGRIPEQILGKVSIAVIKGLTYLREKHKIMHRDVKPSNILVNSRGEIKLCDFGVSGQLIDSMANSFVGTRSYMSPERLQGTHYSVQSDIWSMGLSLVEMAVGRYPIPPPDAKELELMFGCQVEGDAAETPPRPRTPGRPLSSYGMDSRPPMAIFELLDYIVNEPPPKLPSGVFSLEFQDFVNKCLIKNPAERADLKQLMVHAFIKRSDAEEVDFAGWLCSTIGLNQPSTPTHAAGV

Consider `COc1cc2ncc(F)c(Nc3ccc(Oc4ccccc4)cc3)c2cc1OC` [Compound No 5], for which half-maximal inhibition (IC50) required 550 nM.

The values above are taken from patent US6638945B1, “Quinoline derivatives as inhibitors of MEK enzymes” (AstraZeneca AB, priority 1999, dated 2003).
